Assay results from US12466885B2, “Bispecific chimeric antigen receptors and encoding polynucleotides, vectors and cells thereof” (Seattle Children's Hospital, priority 2012, dated 2025).

Columns and labels:
[1] = test system: non-transduced primary human T cells; test: MTX effect on non-transduced primary human T cells; format: cell-based; settings: starting at concentrations as low as 0.025 μM MTX
Experimental: (§1) Applicants transduced primary human T cells with the same CD19CAR-huEGFRt-hDHFR^FS lentiviral vector. Purified CD62L^+CD45RO^+ T cells were used as a starting population based on their potential for persistence after adoptive transfer. Ten days after transduction, these T cells were cultured in varying concentrations of MTX and assessed for cell number and viability over time.

transduced CTLL2 cells = test: MTX resistance and selection of CD19CAR-huEGFRt-hDHFR^FS transduced CTLL2 cells; format: cell-based, murine; settings: for huEGFRt^+ cells: 8 days
Experimental: CTLL2 T cells were first transduced with this CD19CAR-huEGFRt-hDHFR^FS lentiviral vector and evaluated for their resistance to MTX.
To further characterize the maximum dose of MTX that could be tolerated by selected CTLL2 cells, transduced CTLL2 cells that had been cultured in 0.1 μM MTX for 8 days were re-plated at a wider range of MTX concentrations (up to 0.75 μM).

[2] = test system: transduced primary human T cells (CD62L^+CD45RO^+); test: MTX selection of CD19CAR-huEGFRt-hDHFR^FS transduced primary human T cells; format: cell-based
Experimental: as §1

[3] = test system: non-transduced CTLL2 cells; test: MTX effect on non-transduced CTLL2 cells; format: cell-based, murine; settings: ≥0.05 μM MTX
Text: In the absence of MTX, the non-transduced and transduced CTLL2 cells expanded at an equivalent rate (21- and 27-fold respectively).

huEGFRt^+ T cells = test: ADCC of huEGFRt^+ T cells, 4-hour chromium release assay; format: cell-based, human
Text: A valuable feature of a cell surface selection/tracking marker would be its capacity to serve as a target for in vivo cell ablation.
^51Cr-labeled huEGFRt^+ T cells as the target cells and human GM-CSF activated fresh PBMCs as effectors were co-cultured.

CN(Cc1cnc2nc(N)nc(N)c2n1)c1ccc(C(=O)N[C@@H](CCC(=O)O)C(=O)O)cc1 [MTX, methotrexate]
viability and fold-expansion of non-transduced primary human T cells [1]: strong inhibition
huEGFRt^+ cells (transduced CTLL2 cells; 0.01 μM MTX): 49%
huEGFRt^+ cells (transduced CTLL2 cells; 0.025 μM MTX): 93%
huEGFRt^+ cells (transduced CTLL2 cells; 0.05 μM MTX): 98.5%
huEGFRt^+ cells (transduced CTLL2 cells; 0.1 μM MTX): 99%
expansion of transduced cells (transduced CTLL2 cells; MTX (0-0.1 μM) for 8 days): 7 fold
survival of transduced cells (transduced CTLL2 cells; MTX (0-0.1 μM) for 8 days): 80%
expansion of transduced and pre-MTX selected cells (transduced CTLL2 cells; MTX concentrations up to 0.25 μM, pre-cultured in 0.1 μM MTX for 8 days): 90-100 fold
CD19CAR^+ cells ([2]; 0.025 μM MTX, 10 days): about 54%
EGFRt^+ cells ([2]; 0.025 μM MTX, 10 days): ~79%
CD19CAR^+ cells ([2]; 0.05 μM MTX, 10 days): about 76%
EGFRt^+ cells ([2]; 0.05 μM MTX, 10 days): ~89%
viability of transduced T cells ([2]; 0.1 μM MTX): 63%
CD19CAR^+ cells ([2]; Day 6 of culture (Day 0: 18%)): 48%
EGFRt^+ cells ([2]; Day 6 of culture (Day 0: 28%)): 71%
CD19CAR^+ cells ([2]; Day 10 of culture): 70%
EGFRt^+ cells ([2]; Day 10 of culture): 88%
non-transduced CTLL2 cell expansion and viability [3]: strong inhibition

RITUXAN® (rituximab): CD20-specific mAb
triggering ADCC of huEGFRt^+ T cells (huEGFRt^+ T cells): no effect
